Patent publication US20050171424A1, “Methods for imaging the lymphatic system using dendrimer-based contrast agents” (The Gov. of the USA as rep. by the Secretary of the Dept. …, priority 2004, published 2005)

Tests used:
[1] = tested on: lymphatic drainage from tumor-bearing mammary glands; assay: Mammo-MR-lymphangiography of tumor-bearing mammary glands, BALB-neuT transgenic breast cancer model; type: in vivo, BALB-neuT transgenic mice; details: FIG. 4
Procedure: The breast-tumor bearing mice were thirty one week-old BALB-neuT mice (n=3) transgenic for the rat HER-2/neu (Erb B2) oncogene under the control of the mouse mammary tumor virus promotor (MMTV). […] BALB-neuT mice were used because of their spontaneous development of bilateral breast cancers and lymph node metastases. […] Most metastatic lymph nodes from the mouse mammary pad localize in the neck, lateral thoracic, or axillary region.
Mice were anesthetized with 1.15 mg sodium pentobarbital (Dainabot, Osaka, Japan), and then injected with 0.15-0.24 μmol Gd/5-8 μL of the PAMAM-G6 contrast agent into normal mammary glands or mammary tissue surrounding a tumor (peritumorally). Dynamic micro-MR images were obtained using a 1.5-Tesla superconductive magnet unit (Signa LX, General Electric Medical System, Milwaukee, Wis.) with a birdcage type coil of 3 cm diameter fixed by a custom made coil holder. [Single and double “breast coils” used for imaging breasts in humans are commercially available, for example, from GE Medical Systems (Milwaukee, Wis.) and are routinely available in outpatient MRI centers] The mice were wrapped with gauze to stabilize their body temperature and were placed at the center of the coils. […]

[2] = tested on: draining lymph nodes and lymphatic vessels; assay: 3D dynamic mammo-lymphangiograms after sequential injection of GPDM and PAMAM-G6 into the mammary gland; type: in vivo, athymic nu/nu mice; details: 0.15 μmol Gd into mammary gland; GPDM imaged at 12, 24, 36 min, then PAMAM-G6 injected 36 minutes following GPDM
Procedure: Mice were anesthetized with 1.15 mg sodium pentobarbital (Dainabot, Osaka, Japan), and then injected with 0.15-0.24 μmol Gd/5-8 μL of the PAMAM-G6 contrast agent into normal mammary glands or mammary tissue surrounding a tumor (peritumorally). Dynamic micro-MR images were obtained using a 1.5-Tesla superconductive magnet unit (Signa LX, General Electric Medical System, Milwaukee, Wis.) with a birdcage type coil of 3 cm diameter fixed by a custom made coil holder. [Single and double “breast coils” used for imaging breasts in humans are commercially available, for example, from GE Medical Systems (Milwaukee, Wis.) and are routinely available in outpatient MRI centers] The mice were wrapped with gauze to stabilize their body temperature and were placed at the center of the coils. Athymic nu/nu mice (n=4) were anesthetized and injected with 0.15 μmol Gd of GPDM into the mammary gland, and images were taken 12, 24, and 36 min after injection. Following these three images, these mice were subsequently injected with 0.15 μmol Gd of PAMAM-G6 contrast agent in the mammary gland, and images were taken at 12 and 24 min post-injection of the PAMAM-G6 contrast agent (at 48 and 60 min post-injection of GPDM).

[3] = Distribution and survival properties of the dendrimer conjugates; details: in vivo
[4] = tested on: lymphatic drainage from PT-18 tumor-bearing mammary gland; assay: Mammo-MR-lymphangiography of PT-18 tumor xenograft-bearing mammary gland; type: in vivo, athymic nu/nu mice; details: FIG. 5
Procedure: Tumor xenografts of PT-18, a murine mast cell line, were introduced into the left mammary pad in athymic nu/nu mice. When 10^7 PT-18 cells were injected in the left mammary pad of 10 athymic nu/nu mice, six mice developed tumor masses in the left axillary lymph nodes within three weeks.
(§1) Mice were anesthetized with 1.15 mg sodium pentobarbital (Dainabot, Osaka, Japan), and then injected with 0.15-0.24 μmol Gd/5-8 μL of the PAMAM-G6 contrast agent into normal mammary glands or mammary tissue surrounding a tumor (peritumorally). Dynamic micro-MR images were obtained using a 1.5-Tesla superconductive magnet unit (Signa LX, General Electric Medical System, Milwaukee, Wis.) with a birdcage type coil of 3 cm diameter fixed by a custom made coil holder. [Single and double “breast coils” used for imaging breasts in humans are commercially available, for example, from GE Medical Systems (Milwaukee, Wis.) and are routinely available in outpatient MRI centers] The mice were wrapped with gauze to stabilize their body temperature and were placed at the center of the coils.
In order to evaluate lymphatic drainage from six tumor-bearing mammary glands of three BALB-neuT transgenic mice or the PT-18 tumor-bearing mammary gland of athymic nu/nu mice (n=6), 2D fast-inversion recovery [2D-fastIR; repetition time/echo time 8000/96 msec; inversion time 150 msec; 31.2 kHz, 2 excitations; 16 slices; scan time 2 min 16 seconds] was employed to evaluate the tumor localization before injection of PAMAM-G6 contrast agent. The coronal images were reconstructed with 1.5 mm section thickness without a gap. The FOV was 8×4 cm and the size of matrix was 512×256. The slice data were processed into 3D images using the MIP method with the same window and level (window 3500 and level 2100) (Advantage Windows, GE). Then images were obtained with the 3D-fastSPGR sequence as described above.

[5] = tested on: Draining Lymph Nodes (LNs) From the Normal Breast Tissue; assay: Dynamic micro-MR mammo-lymphangiography of lymphatic drainage from the normal mammary gland; type: in vivo, mice (Balb/c, athymic nu/nu)
Procedure: as §1
In order to evaluate the lymphatic drainage from the normal mammary gland of either Balb/c mice (n=5) or athymic nu/nu mice (n=5), 3D-fast spoiled gradient echo [3D-fastSPGR (efgre3d package; Signa Horizon, GE); repetition time/echo time 19.2/7.2 msec; inversion time 47 msec; 31.2 kHz, flip angle 30°, 4 excitations; 36 slice encoding steps; scan time 4 min 49 seconds] with chemical shift fat-suppression was used 6, 12, 18, 24, 30, 36, 42, and 48 min after injection of the contrast agent. The coronal images were reconstructed with 0.6-mm section thickness every 0.3-mm. The FOV was 8×4 cm and the size of the matrix was 512×256. The slice data were processed into 3D images using the maximum intensity projection (MIP) method with the same window and level (window 3500 and level 2100) (Advantage Windows, General Electric Medical System). After imaging, the mice were sacrificed by carbon dioxide inhalation.

[6] = 6 min after injection into normal mammary gland
[7] = 12 min after injection into normal mammary gland
[8] = 18 min after injection into normal mammary gland
[9] = 24 min after injection into normal mammary gland
[10] = 30 min after injection into normal mammary gland
[11] = 36 min after injection into normal mammary gland
[12] = 42 min after injection into normal mammary gland
[13] = 48 min after injection into normal mammary gland

Substance: PAMAM-G6D-(Gd-1B4M)256 dendrimer conjugate
- Imaging of enlarged lymph nodes containing tumor metastases and dilated lymphatic vessels [1]: clearly imaged
- Visualization of flow within the draining lymphatic vessels ([1]; peritumoral injection): readily visualized
- Visualization of draining lymph nodes and lymphatic vessels (FIG. 3) [2]: clearly visualized
- Survival period in the lymph system [3]: intermediate survival period in the lymph system
- Enhancement of axillary lymph node tissue with metastatic tumor cells [4]: did not shown enhancement
- Enhancement of the lymphatic vessel flowing into the lymph node with a metastatic tumor [4]: dilated and showed enhancement
- Visualization of flow within the draining lymphatic vessels ([4]; peritumoral injection): readily visualized
- Visualized LNs/Total Examined LNs, Axillary LN [5, 6]: 10/10
- Visualized LNs/Total Examined LNs, Lateral thoracic LN [5, 6]: 0/10
- Visualized LNs/Total Examined LNs, Superficial cervical LN [5, 6]: 1/10
- Visualized LNs/Total Examined LNs, Axillary LN [5, 7]: 10/10
- Visualized LNs/Total Examined LNs, Lateral thoracic LN [5, 7]: 1/10
- Visualized LNs/Total Examined LNs, Superficial cervical LN [5, 7]: 1/10
- Visualized LNs/Total Examined LNs, Axillary LN [5, 8]: 10/10
- Visualized LNs/Total Examined LNs, Lateral thoracic LN [5, 8]: 2/10
- Visualized LNs/Total Examined LNs, Superficial cervical LN [5, 8]: 1/10
- Visualized LNs/Total Examined LNs, Axillary LN [5, 9]: 10/10
- Visualized LNs/Total Examined LNs, Lateral thoracic LN [5, 9]: 4/10
- Visualized LNs/Total Examined LNs, Superficial cervical LN [5, 9]: 2/10
- Visualized LNs/Total Examined LNs, Axillary LN [5, 10]: 10/10
- Visualized LNs/Total Examined LNs, Lateral thoracic LN [5, 10]: 4/10
- Visualized LNs/Total Examined LNs, Superficial cervical LN [5, 10]: 2/10
- Visualized LNs/Total Examined LNs, Axillary LN [5, 11]: 10/10
- Visualized LNs/Total Examined LNs, Lateral thoracic LN [5, 11]: 5/10
- Visualized LNs/Total Examined LNs, Superficial cervical LN [5, 11]: 3/10
- Visualized LNs/Total Examined LNs, Axillary LN [5, 12]: 10/10
- Visualized LNs/Total Examined LNs, Lateral thoracic LN [5, 12]: 6/10
- Visualized LNs/Total Examined LNs, Superficial cervical LN [5, 12]: 3/10
- Visualized LNs/Total Examined LNs, Axillary LN [5, 13]: 10/10
- Visualized LNs/Total Examined LNs, Lateral thoracic LN [5, 13]: 6/10
- Visualized LNs/Total Examined LNs, Superficial cervical LN [5, 13]: 3/10
- Mice in which the axillary lymph node and its afferent lymphatic vessels were visualized ([5]; initial (6 min) time point): all 10 mice
